Measurements taken from patent publication US8969299B2, “Therapeutic agents for regulating serum phosphorus” (KAI Pharmaceuticals, Inc., priority 2011, dated 2015).
Peptide text beside a SMILES is read from it.

What was measured:
1K1C model animals = assay: plasma PTH reduction after 30-minute IV infusion in 1K1C model animals; assay type: in vivo; conditions: 3 mg/kg; for effect on plasma PTH: 30-minute IV infusion; for mean PTH reduction: 24 hour time point
Text: These compounds include (i) Ac-crrrr-NH2 (SEQ ID NO:4), (ii) Ac-crrrrr-NH2 (SEQ ID NO:5), (iii) Ac-crrrrrr-NH2 (SEQ ID NO:6), and (iv) Ac-crrrrrrr-NH2 (SEQ ID NO:7). In previous studies, the compounds identified as SEQ ID NO:4, SEQ ID NO:5, SEQ ID NO:6 and SEQ ID NO:7 were each administered by a 30-minute IV infusion to 1K1C model animals and effected a reduction in plasma PTH levels as a percent of the pre-dosing (baseline) level. […] These latter two compounds produced a mean PTH reduction of ˜40% and 60% at the 24 hour time point, respectively. It should be noted that the compounds in this study were administered at the same mg/kg dose but, due to differences in molecular weight, a different number of moles of each compound was actually dosed.

human CaSR = target: T1, human CaSR (Homo sapiens, UniProt P41180); assay: IP1 production in HEK293 cells that express the human CaSR; assay type: cell-based; conditions: HEK 293 cells
T1 construct: expressed in transfected cells; host or cells: HEK293
T1 sequence (P41180 20-1078): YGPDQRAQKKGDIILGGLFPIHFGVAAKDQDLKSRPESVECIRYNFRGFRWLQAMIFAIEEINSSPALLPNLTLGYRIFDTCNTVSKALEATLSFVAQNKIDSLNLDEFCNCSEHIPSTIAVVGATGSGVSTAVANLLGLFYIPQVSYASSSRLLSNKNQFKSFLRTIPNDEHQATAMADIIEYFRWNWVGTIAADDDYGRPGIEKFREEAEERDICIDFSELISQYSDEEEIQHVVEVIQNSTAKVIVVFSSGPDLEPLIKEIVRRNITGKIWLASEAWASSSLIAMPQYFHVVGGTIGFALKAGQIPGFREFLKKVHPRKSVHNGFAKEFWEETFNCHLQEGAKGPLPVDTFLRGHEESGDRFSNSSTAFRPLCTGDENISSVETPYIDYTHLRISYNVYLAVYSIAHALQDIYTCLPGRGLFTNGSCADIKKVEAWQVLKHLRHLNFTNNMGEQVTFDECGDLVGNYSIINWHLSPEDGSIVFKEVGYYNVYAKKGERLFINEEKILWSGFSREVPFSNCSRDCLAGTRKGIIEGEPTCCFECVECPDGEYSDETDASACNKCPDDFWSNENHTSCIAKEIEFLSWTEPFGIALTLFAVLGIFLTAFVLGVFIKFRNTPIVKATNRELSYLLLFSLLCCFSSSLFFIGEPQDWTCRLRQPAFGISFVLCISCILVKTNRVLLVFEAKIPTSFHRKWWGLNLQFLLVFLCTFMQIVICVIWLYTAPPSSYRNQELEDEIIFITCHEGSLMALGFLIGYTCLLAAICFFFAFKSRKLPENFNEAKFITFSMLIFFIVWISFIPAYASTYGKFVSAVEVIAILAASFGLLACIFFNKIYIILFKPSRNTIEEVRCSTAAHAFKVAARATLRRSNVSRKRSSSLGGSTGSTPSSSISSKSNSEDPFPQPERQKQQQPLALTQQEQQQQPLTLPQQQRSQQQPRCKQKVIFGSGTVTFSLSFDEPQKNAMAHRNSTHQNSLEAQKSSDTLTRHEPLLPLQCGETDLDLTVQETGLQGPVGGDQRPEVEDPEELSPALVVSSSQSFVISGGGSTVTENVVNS
Protocol: The compounds were characterized in an in vitro human calcium-sensing receptor (CaSR) assay, wherein HEK 293 cells that express the human calcium-sensing receptor were used to measure activity of exemplary compounds.
Further structure-activity relationship studies were conducted using the in vitro cell assay in HEK 293 cells that express the human calcium-sensing receptor.
The activity of a variety of peptides and conjugates was tested for their effects on the human CaSR. These studies were conducted by measuring IP1 production in HEK293 cells that express the human CaSR.

normal rats = assay: PTH reduction in vivo in normal rats; set-up: species or system rat; conditions: for decrease in percent PTH: after a single IV administration in normal rats
Protocol: The data illustrate that cationic and uncharged residues at different positions are not all equal and there are changes in activity as a result of change in the compound structure.
The structure-activity relationship of the thiol-containing group in the X1 subunit of the compound was further analyzed by preparing compounds with differing X1 subunits. The compounds, were tested in vivo in normal rats for activity to reduce PTH. The data illustrated that the thiol-containing X1 subunit can be varied. Compounds with the following in the N-terminal residue were tested—D-cysteine (cys), D-penicillamine (dPen), d-homocysteine (dHcy) and mercaptopropionic acid (Mpa). In addition, a natural or non-natural amino acid, such as beta alanine, can be conjugated to the N-terminal thiol-containing residue. The data illustrated that cationic compounds such as […] (SEQ ID NO:6) containing different thiol-containing groups in the X1 subunit effectively reduce PTH in vivo.
In another study of the structure activity relationship, the contribution of non-cationic amino acids to the potency of the peptides was evaluated by preparing a series of peptides with various D-amino acid residues or glycine or with sterically-hindered non-natural amino acids, substituted at various positions in the peptide Ac-carrrar-NH2 (SEQ ID NO:26) and in the peptide Ac-crrarar-NH2 (SEQ ID NO:153). The peptides were administered as an IV bolus to normal Sprague Dawley rats at a dose of 0.5 mg/kg. An intravenous (IV) bolus of saline was used as a control. Plasma PTH levels were assessed prior to dosing and 1, 2, 3 and 4 hours after dosing.

PTH blood concentration = assay: in vivo PTH-lowering activity (species not stated)
Protocol: The contribution of the thiol-containing group in the X1 subunit of the compound (e.g., in certain embodiments where the compound is a peptide on the N-terminal residue), was also investigated in an in vivo study. The PTH-lowering activity of the peptides identified as SEQ ID NO:26 (Ac-carrrar-NH2) and as SEQ ID NO:29 (Ac-arrrar-NH2) was evaluated in vivo.

CC(=O)N[C@H](CS)C(=O)N[C@H](CCCNC(=N)N)C(=O)N[C@H](CCCNC(=N)N)C(=O)N[C@H](CCCNC(=N)N)C(=O)N[C@H](CCCNC(=N)N)C(=O)N[C@H](CCCNC(=N)N)C(=O)N[C@H](CCCNC(=N)N)C(=O)N[C@H](CCCNC(=N)N)C(N)=O [SEQ ID NO: 7, Ac-crrrrrrr-NH2] (HELM PEPTIDE1{[ac].[dC].[dR].[dR].[dR].[dR].[dR].[dR].[dR].[am]}$$$$V2.0)
effect on plasma PTH (1K1C model animals): significant drop in plasma PTH

CC(=O)N[C@H](CS)C(=O)N[C@H](C)C(=O)N[C@H](CCCNC(=N)N)C(=O)N[C@H](C)C(=O)N[C@H](CCCNC(=N)N)C(=O)N[C@H](CCCNC(=N)N)C(=O)N[C@H](CCCNC(=N)N)C(N)=O [SEQ ID NO: 15, Ac-cararrr-NH2] (HELM PEPTIDE1{[ac].[dC].[dA].[dR].[dA].[dR].[dR].[dR].[am]}$$$$V2.0)
ability to activate the CaSR in vitro, in words (human CaSR): significantly reduced potency in vitro in activating the CaSR

CC(=O)N[C@H](CS)C(=O)N[C@H](CCCNC(=N)N)C(=O)N[C@H](CCCNC(=N)N)C(=O)N[C@H](CCCNC(=N)N)C(=O)N[C@H](CCCNC(=N)N)C(=O)N[C@H](CCCNC(=N)N)C(=O)N[C@H](CCCNC(=N)N)C(=O)N[C@H](CCCNC(=N)N)C(=O)N[C@H](CCCNC(=N)N)C(N)=O [SEQ ID NO: 41, Ac-crrrrrrrr-NH2] (HELM PEPTIDE1{[ac].[dC].[dR].[dR].[dR].[dR].[dR].[dR].[dR].[dR].[am]}$$$$V2.0)
ability to activate the CaSR in vitro, in words (human CaSR): more potent at activating the CaSR

CC(=O)N[C@H](CS)C(=O)N[C@H](CCCNC(=N)N)C(=O)N[C@H](CCCNC(=N)N)C(=O)N[C@H](CCCNC(=N)N)C(=O)N[C@H](C)C(=O)N[C@H](CCCNC(=N)N)C(=O)N[C@H](CCCNC(=N)N)C(N)=O [SEQ ID NO: 11, Ac-crrrarr-NH2] (HELM PEPTIDE1{[ac].[dC].[dR].[dR].[dR].[dA].[dR].[dR].[am]}$$$$V2.0)
reduction in in vitro potency relative to Ac-crrrrrr-NH2 (SEQ ID NO:6) (human CaSR): 5-10 fold | in vivo percent PTH AUC reduction (normal rats; single IV administration): 45%

CC(=O)N[C@H](CS)C(=O)N[C@H](C)C(=O)N[C@H](CCCNC(=N)N)C(=O)N[C@H](CCCNC(=N)N)C(=O)N[C@H](CCCNC(=N)N)C(=O)N[C@H](CCCNC(=N)N)C(=O)N[C@H](CCCNC(=N)N)C(N)=O [SEQ ID NO: 8, Ac-carrrrr-NH2] (HELM PEPTIDE1{[ac].[dC].[dA].[dR].[dR].[dR].[dR].[dR].[am]}$$$$V2.0)
decrease in percent PTH (normal rats): below the detection limit or essentially zero

CC(=O)N[C@H](CS)C(=O)N[C@H](CCCNC(=N)N)C(=O)N[C@H](CCCNC(=N)N)C(=O)N[C@H](C)C(=O)N[C@H](CCCNC(=N)N)C(=O)N[C@H](CCCNC(=N)N)C(=O)N[C@H](CCCNC(=N)N)C(N)=O [SEQ ID NO: 10, Ac-crrarrr-NH2] (HELM PEPTIDE1{[ac].[dC].[dR].[dR].[dA].[dR].[dR].[dR].[am]}$$$$V2.0)
decrease in percent PTH (normal rats): below the detection limit or essentially zero

CC(=O)N[C@H](CS)C(=O)N[C@H](CCCNC(=N)N)C(=O)N[C@H](CCCNC(=N)N)C(=O)N[C@H](CCCNC(=N)N)C(=O)N[C@H](CCCNC(=N)N)C(=O)N[C@H](CCCNC(=N)N)C(=O)N[C@H](CCCNC(=N)N)C(N)=O [SEQ ID NO: 6, Ac-crrrrrr-NH2]
effect on plasma PTH (1K1C model animals): significant drop in plasma PTH | mean PTH reduction (1K1C model animals): ~40% | decrease in percent PTH (normal rats): below the detection limit or essentially zero | in vivo activity in comparison (PTH blood concentration; compared with SEQ ID NO:41): greater and more prolonged activity than Ac-crrrrrrrr-NH2 (SEQ ID NO:41)

CC(=O)N[C@H](CS)C(=O)N[C@H](CCCNC(=N)N)C(=O)N[C@H](CCCNC(=N)N)C(=O)N[C@H](CCCNC(=N)N)C(=O)N[C@H](CCCNC(=N)N)C(=O)N[C@H](CCCNC(=N)N)C(N)=O [SEQ ID NO: 5, Ac-crrrrr-NH2] (HELM PEPTIDE1{[ac].[dC].[dR].[dR].[dR].[dR].[dR].[am]}$$$$V2.0)
effect on plasma PTH (1K1C model animals): significant drop in plasma PTH | mean PTH reduction (1K1C model animals): 60%

CC(=O)N[C@H](C)C(=O)N[C@H](CCCNC(=N)N)C(=O)N[C@H](CCCNC(=N)N)C(=O)N[C@H](CCCNC(=N)N)C(=O)N[C@H](C)C(=O)N[C@H](CCCNC(=N)N)C(N)=O [SEQ ID NO: 29, Ac-arrrar-NH2] (HELM PEPTIDE1{[ac].[dA].[dR].[dR].[dR].[dA].[dR].[am]}$$$$V2.0)
ability to activate the CaSR in vitro, in words (human CaSR): dramatically reduced the ability of the compound to activate the CaSR | PTH concentration (PTH blood concentration; 9 mg/kg dose): did not reduce PTH concentration

CC(=O)N[C@H](CS)C(=O)N[C@H](C)C(=O)N[C@H](CCCNC(=N)N)C(=O)N[C@H](CCCNC(=N)N)C(=O)N[C@H](CCCNC(=N)N)C(=O)N[C@H](C)C(=O)N[C@H](CCCNC(=N)N)C(N)=O [SEQ ID NO: 26, Ac-carrrar-NH2]
ability to activate the CaSR in vitro, in words (human CaSR): retained much of the potency seen with Ac-crrrrrr-NH2 (SEQ ID NO:6) | reduction in in vitro potency relative to Ac-crrrrrr-NH2 (SEQ ID NO:6) (human CaSR): −3 fold | PTH blood concentration (PTH blood concentration; 0.5 mg/kg dose): decreased PTH blood concentration to a non-detectable level for up to 4 hours after dosing

CC(=O)N[C@@H](CS)C(=O)N[C@H](C)C(=O)N[C@@H](CCCNC(=N)N)C(=O)N[C@H](CCCNC(=N)N)C(=O)N[C@@H](CCCNC(=N)N)C(=O)N[C@H](C)C(=O)N[C@@H](CCCNC(=N)N)C(N)=O [SEQ ID NO: 44, Ac-CaRrRaR-NH2]
decrease in potency relative to Ac-carrrar-NH2 (SEQ ID NO:26) (human CaSR): < 4 fold | reduction in in vitro potency relative to Ac-crrrrrr-NH2 (SEQ ID NO:6) (human CaSR): 10 fold
